Data on 26 molecules can be found in ChEMBL document CHEMBL1128134, “Characterization of a continuous fluorogenic assay for calpain I. Kinetic evaluation of peptide aldehydes, halomethyl ketones and (acyloxy)methyl ketones as inhibitors of the enzyme” (Bioorg Med Chem Lett, 1995).

One assay has as its target Calpain 1 (Homo sapiens) (UniProt P04632+P07384). The experiment in a line: Apparent second order rate constant for inhibition of calpain-1 by fluorogenic assay. Type of assay: protein-complex assay.
The target of assay [1] is Cathepsin B (Homo sapiens) (UniProt P07858). Briefly: Apparent second order rate constant for inhibition of cathepsin B by fluorogenic assay.
Assay [2] concerns the target Procathepsin L (Homo sapiens) (UniProt P07711). Briefly: Inhibition of cathepsin L (fluorogenic assay), apparent second order rate constant.
The next assay concerns the target Calpain 1 (Homo sapiens, UniProt P07384). Briefly: Inhibition of Calpain 1 by [3H]acetyl-casein assay. The format is protein-complex assay.

SMILES strings stand for the structures. Square brackets hold non-standard residues; d marks the D form. Peptide text beside a SMILES is read from it. * marks the point of attachment. ξ: configuration not given here. tBuAla = CC(C)(C)C[C@H](N)C(=O)O; Ile(3ξ) = CCC(C)[C@H](N)C(=O)O; Cbz = O=C(OCc1ccccc1)*; ξL = CC(C)CC(N)C(=O)O; CH2Cl = ClC*

Sequence of Procathepsin L (Homo sapiens) (P07711 114-333 limits assumed): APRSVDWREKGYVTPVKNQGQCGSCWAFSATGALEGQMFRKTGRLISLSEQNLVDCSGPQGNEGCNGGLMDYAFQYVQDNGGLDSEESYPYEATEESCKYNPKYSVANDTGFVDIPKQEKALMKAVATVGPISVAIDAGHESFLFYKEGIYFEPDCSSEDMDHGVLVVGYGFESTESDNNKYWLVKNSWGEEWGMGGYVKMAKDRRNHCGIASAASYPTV
Sequence of Calpain 1 (P04632 whole entry): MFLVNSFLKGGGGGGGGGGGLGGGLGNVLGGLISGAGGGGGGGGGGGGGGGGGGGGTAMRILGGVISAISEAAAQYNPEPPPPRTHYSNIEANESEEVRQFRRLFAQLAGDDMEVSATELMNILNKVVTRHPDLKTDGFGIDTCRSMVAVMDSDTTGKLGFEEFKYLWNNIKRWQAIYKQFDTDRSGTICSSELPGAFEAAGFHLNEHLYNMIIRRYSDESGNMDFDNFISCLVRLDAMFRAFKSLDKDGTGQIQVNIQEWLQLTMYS
Sequence of Calpain 1 (P07384 whole entry): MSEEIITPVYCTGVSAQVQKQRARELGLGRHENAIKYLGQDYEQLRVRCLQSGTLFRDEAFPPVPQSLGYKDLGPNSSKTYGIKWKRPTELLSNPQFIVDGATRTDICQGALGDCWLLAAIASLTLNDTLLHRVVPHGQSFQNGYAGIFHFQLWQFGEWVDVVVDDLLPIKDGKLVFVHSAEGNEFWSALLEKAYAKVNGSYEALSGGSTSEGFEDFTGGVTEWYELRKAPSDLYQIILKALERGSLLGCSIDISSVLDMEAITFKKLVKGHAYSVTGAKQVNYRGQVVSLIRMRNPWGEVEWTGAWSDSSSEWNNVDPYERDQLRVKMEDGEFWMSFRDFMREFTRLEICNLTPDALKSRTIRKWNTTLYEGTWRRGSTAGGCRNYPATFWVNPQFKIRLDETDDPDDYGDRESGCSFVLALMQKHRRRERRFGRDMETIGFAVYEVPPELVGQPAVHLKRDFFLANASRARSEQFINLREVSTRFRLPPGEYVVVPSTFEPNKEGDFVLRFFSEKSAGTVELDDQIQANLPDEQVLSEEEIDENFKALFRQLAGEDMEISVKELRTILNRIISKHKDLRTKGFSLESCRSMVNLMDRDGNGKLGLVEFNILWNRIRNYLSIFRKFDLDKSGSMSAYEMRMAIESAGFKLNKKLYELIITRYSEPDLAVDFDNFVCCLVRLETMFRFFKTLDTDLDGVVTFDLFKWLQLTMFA

In the case of `CC(=O)Nc1cccc(Cl)c1C(=O)OCC(=O)C(C)NC(=O)C(CC(C)C)NC(=O)OCc1ccccc1` (stereo not drawn), at Calpain 1 (Homo sapiens), the k obs / 1 was 500 M⁻¹ s⁻¹.
Turning to `CC(C)CC(NC(=O)OCc1ccccc1)C(=O)NCC(=O)CCl` (stereo not drawn) (Cbz-[ξL]-Gly-CH2Cl), the figures for the k obs / 1 (in assay [1]; in assay [2]; at Calpain 1 (Homo sapiens)) were 170000 M⁻¹ s⁻¹, 500000 M⁻¹ s⁻¹ and 31000 M⁻¹ s⁻¹, respectively.
As for `C[C@H](NC(=O)OCc1ccccc1)C(=O)N[C@H](C=O)Cc1ccccc1`, the IC50 (as a rule, the concentration that inhibits the measured activity by half) at Calpain 1 worked out at 140 nM. In other words, the sub-micromolar range.
For the molecule `CC(C)CC(NC(=O)OCc1ccccc1)C(=O)NC(Cc1ccc(O)cc1)C(=O)CCl` (stereo not drawn) (Cbz-Leu-Tyr-CH2Cl; configuration not given here), the k obs / 1 in assay [1] came out at 2000 M⁻¹ s⁻¹; at Calpain 1 (Homo sapiens) it was 1500 M⁻¹ s⁻¹.
On to `CC(C)CC(NC(=O)[C@@H](Cc1ccccc1)NC(=O)OCc1ccccc1)C(=O)NC(Cc1ccccc1)C(=O)COC(=O)c1c(F)cccc1F` (stereo partly drawn), for which the k obs / 1 in assay [1] is 100 M⁻¹ s⁻¹; in assay [2] it was 100 M⁻¹ s⁻¹; on Calpain 1 (Homo sapiens), 1000 M⁻¹ s⁻¹.
For `CC(C)CC(C(=O)NC(Cc1ccccc1)C(=O)COC(=O)c1c(F)cccc1F)N(C)C(=O)OCc1ccccc1` (stereo not drawn), the k obs / 1 on Calpain 1 (Homo sapiens) was below 500 M⁻¹ s⁻¹.
Molecule `O=C[C@H](Cc1ccccc1)NC(=O)[C@H](Cc1ccccc1)NC(=O)OCc1ccccc1` (Cbz-Phe-Phe-aldehyde) gave an IC50 on Calpain 1 of 400 nM.
Turning to `COC(=O)N[C@H](C)C(=O)NC(CC(C)C)C(=O)NC(Cc1ccccc1)C(=O)COC(=O)c1c(Cl)ccc(OCCN2CCOCC2)c1Cl` (stereo partly drawn), the values for the k obs / 1 (in assay [1]; in assay [2]; at Calpain 1 (Homo sapiens)) were 4700 M⁻¹ s⁻¹, 90000 M⁻¹ s⁻¹ and 43000 M⁻¹ s⁻¹, respectively.
As to `CC(NC(=O)C(Cc1ccccc1)NC(=O)OCc1ccccc1)C(=O)COC(=O)c1c(Cl)ccc(OCCN2CCOCC2)c1Cl` (stereo not drawn), the k obs / 1 in assay [1] was 150000 M⁻¹ s⁻¹; in assay [2], 180000 M⁻¹ s⁻¹; at Calpain 1 (Homo sapiens) it was below 500 M⁻¹ s⁻¹.
In the case of `CC(C)CC(NC(=O)OCc1ccccc1)C(=O)NCC(=O)COC(=O)c1c(Cl)ccc(OCCN2CCOCC2)c1Cl` (stereo not drawn), the k obs / 1 at Calpain 1 (Homo sapiens) is 6000 M⁻¹ s⁻¹.
For the molecule `CC(C)C(NC(=O)OCc1ccccc1)C(=O)NC(Cc1ccccc1)C(=O)COC(=O)c1c(Cl)cccc1Cl` (stereo not drawn), the k obs / 1 at Calpain 1 (Homo sapiens) came to 11000 M⁻¹ s⁻¹.
`CC(C)CC(NC(=O)OCc1ccccc1)C(=O)NC(Cc1ccccc1)C(=O)CCl` (stereo not drawn) (Cbz-Leu-Phe-CH2Cl; configuration not given here): the k obs / 1 is 2500 M⁻¹ s⁻¹ in assay [1] and 5500 M⁻¹ s⁻¹ on Calpain 1 (Homo sapiens).
In the case of `O=C(N[C@@H](Cc1ccccc1)C(=O)N[C@@H](Cc1ccccc1)C(=O)CCl)OCc1ccccc1` (Cbz-Phe-Phe-CH2Cl), the k obs / 1 at Calpain 1 (Homo sapiens) is below 500 M⁻¹ s⁻¹.
`CC(C)CC(NC(=O)[C@@H](C)NC(=O)OCc1ccccc1)C(=O)NC(Cc1ccccc1)C(=O)COC(=O)c1c(F)cccc1F` (stereo partly drawn): the k obs / 1 is 100 M⁻¹ s⁻¹ in assay [1], 300 M⁻¹ s⁻¹ in assay [2] and 31000 M⁻¹ s⁻¹ at Calpain 1 (Homo sapiens).
Take `CC(C)CC(NC(=O)OCc1ccccc1)C(=O)NC(Cc1ccc(O)cc1)C(=O)COC(=O)c1c(Cl)ccc(S(=O)(=O)N2CCOCC2)c1Cl` (stereo not drawn): on Calpain 1 (Homo sapiens), the k obs / 1 turned out to be 14000 M⁻¹ s⁻¹.
Take `CC(C)CC(NC(=O)OCc1ccccc1)C(=O)NCC(=O)COC(=O)c1c(Cl)ccc(S(=O)(=O)N2CCOCC2)c1Cl` (stereo not drawn): the k obs / 1 in assay [1] is 260000 M⁻¹ s⁻¹; in assay [2] it was 160000 M⁻¹ s⁻¹; on Calpain 1 (Homo sapiens), 23000 M⁻¹ s⁻¹.
In the case of `O=C(CNC(=O)OCc1ccccc1)NC(Cc1ccccc1)C(=O)COC(=O)c1c(Cl)cccc1Cl` (stereo not drawn), the k obs / 1 on Calpain 1 (Homo sapiens) was found to be 700 M⁻¹ s⁻¹.
With `CCC(C)[C@H](NC(=O)OCc1ccccc1)C(=O)N[C@H](C=O)Cc1ccc(O)cc1` (stereo partly drawn) (Cbz-[Ile(3ξ)]-Tyr-aldehyde), half-maximal inhibition at Calpain 1 (IC50) was put at 55 nM.
For the molecule `CC(C)CC(NC(=O)CNC(=O)OCc1ccccc1)C(=O)NC(Cc1ccccc1)C(=O)COC(=O)c1c(F)cccc1F` (stereo not drawn), the k obs / 1 in assay [1] worked out at 800 M⁻¹ s⁻¹; in assay [2], 14000 M⁻¹ s⁻¹; at Calpain 1 (Homo sapiens), 15000 M⁻¹ s⁻¹.
As to `CC(NC(=O)OCc1ccccc1)C(=O)NCC(=O)COC(=O)c1c(Cl)cccc1Cl` (stereo not drawn), at Calpain 1 (Homo sapiens), the k obs / 1 is below 500 M⁻¹ s⁻¹.
Regarding `CC(C)(C)C[C@H](NC(=O)OCc1ccccc1)C(=O)N[C@H](C=O)Cc1ccccc1` (Cbz-[tBuAla]-Phe-aldehyde), the IC50 on Calpain 1 was found to be 100 nM.
For the molecule `CC(C)CC(NC(=O)[C@@H](C)NC(=O)OCc1ccccc1)C(=O)NC(Cc1ccccc1)C(=O)COC(=O)c1c(Cl)ccc(OCCN2CCOCC2)c1Cl` (stereo partly drawn), the k obs / 1 in assay [1] turned out to be 400 M⁻¹ s⁻¹; in assay [2], 28000 M⁻¹ s⁻¹; on Calpain 1 (Homo sapiens) it was 32000 M⁻¹ s⁻¹.
With `CC(C)[C@H](NC(=O)OCc1ccccc1)C(=O)N1CCC[C@H]1C=O` (Cbz-Val-Pro-aldehyde), the IC50 against Calpain 1 is above 1000 nM.
`COC(=O)N[C@H](C)C(=O)NC(CC(C)C)C(=O)NC(Cc1ccccc1)C(=O)COC(=O)c1c(F)cccc1F` (stereo partly drawn): the k obs / 1 is 700 M⁻¹ s⁻¹ in assay [1], 400 M⁻¹ s⁻¹ in assay [2] and 1400 M⁻¹ s⁻¹ at Calpain 1 (Homo sapiens).
On to `CC(C)CC(NC(=O)OCc1ccccc1)C(=O)NC(Cc1ccccc1)C(=O)COC(=O)c1c(F)cccc1F` (stereo not drawn), for which, on Calpain 1 (Homo sapiens), the k obs / 1 was determined as 9000 M⁻¹ s⁻¹.
Take `CC(C)CC(NC(=O)OCc1ccccc1)C(=O)NC(Cc1ccc(O)cc1)C(=O)COC(=O)c1c(Cl)ccc(S(=O)(=O)CCN2CCOCC2)c1Cl` (stereo not drawn): the k obs / 1 in assay [1] was found to be 2600 M⁻¹ s⁻¹; in assay [2] it was 50000 M⁻¹ s⁻¹; on Calpain 1 (Homo sapiens), 54000 M⁻¹ s⁻¹.
